Assay results: PubChem BioAssay AID248 (DTP/NCI, 2004)
“And” between values parts separate entries of the source, which are not always exact repeats. Equal values may be shown once. Toxic doses and inconclusive results are not listed. Cut-off read from the data, not from the text of the source: active = T/C of 150% or more; inactive = T/C below 125%. Square brackets hold non-standard residues; d marks the D form. Peptide text beside a SMILES is read from it. * marks the point of attachment. ξ: configuration not given here. Cbz = O=C(OCc1ccccc1)*; ξI = CCC(C)C(N)C(=O)O

System: L1210 leukemia ip in BDF1 mice, survival T/C
Assay: NCI In Vivo Anticancer Drug Screen. Data for tumor model L1210 Leukemia (intraperitoneal) in B6D2F1 (BDF1) mice
Conditions: endpoint: mean survival time, higher = longer survival
Outline: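 Mice bearing the transplanted tumor received compound or vehicle. Survival of the treated group was divided by that of the vehicle-treated control group to give the ratio.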

[1] = dose: 100.0 mg/kg/injection, schedule: Q01DX009 (ip), vehicle: saline
[2] = dose: 100.0 mg/kg/injection, schedule: Q04DX003 (ip), vehicle: saline
[3] = dose: 200.0 mg/kg/injection, schedule: Q04DX003 (ip), vehicle: saline
[4] = dose: 400.0 mg/kg/injection, schedule: Q04DX003 (ip), vehicle: saline
[5] = dose: 100.0 mg/kg/injection, schedule: Q01DX001 (ip), vehicle: other
[6] = dose: 200.0 mg/kg/injection, schedule: Q01DX001 (ip), vehicle: other
[7] = dose: 400.0 mg/kg/injection, schedule: Q01DX001 (ip), vehicle: other
[8] = dose: 100.0 mg/kg/injection, schedule: Q04DX003 (ip), vehicle: saline with Tween-80
[9] = dose: 200.0 mg/kg/injection, schedule: Q04DX003 (ip), vehicle: saline with Tween-80
[10] = dose: 400.0 mg/kg/injection, schedule: Q04DX003 (ip), vehicle: saline with Tween-80
[11] = dose: 200.0 mg/kg/injection, schedule: Q01DX009 (ip), vehicle: saline
[12] = dose: 400.0 mg/kg/injection, schedule: Q01DX009 (ip), vehicle: saline
[13] = dose: 50.0 mg/kg/injection, schedule: Q01DX009 (ip), vehicle: Klucel (hydroxypropylcellulose) (HPC)
[14] = dose: 100.0 mg/kg/injection, schedule: Q01DX009 (ip), vehicle: Klucel (hydroxypropylcellulose) (HPC)
[15] = dose: 400.0 mg/kg/injection, schedule: Q01DX009 (ip), vehicle: Klucel (hydroxypropylcellulose) (HPC)
[16] = dose: 100.0 mg/kg/injection, schedule: Q01DX009 (ip), vehicle: saline with Tween-80
[17] = dose: 200.0 mg/kg/injection, schedule: Q01DX009 (ip), vehicle: saline with Tween-80
[18] = dose: 50.0 mg/kg/injection, schedule: Q01DX001 (ip), vehicle: carboxymethylcellulose (CMC)
[19] = dose: 50.0 mg/kg/injection, schedule: Q04DX003 (ip), vehicle: Klucel (hydroxypropylcellulose) (HPC)
[20] = dose: 100.0 mg/kg/injection, schedule: Q01DX001 (ip), vehicle: carboxymethylcellulose (CMC)
[21] = dose: 200.0 mg/kg/injection, schedule: Q01DX009 (ip), vehicle: Klucel (hydroxypropylcellulose) (HPC)
[22] = dose: 200.0 mg/kg/injection, schedule: Q01DX001 (ip), vehicle: carboxymethylcellulose (CMC)
[23] = dose: 400.0 mg/kg/injection, schedule: Q01DX001 (ip), vehicle: carboxymethylcellulose (CMC)
[24] = dose: 400.0 mg/kg/injection, schedule: Q01DX009 (ip), vehicle: saline with Tween-80

Measured: T/C

CN=C(NCc1ccccc1)c1ccc(NC(=O)c2ccc(C(=O)Nc3ccc(C(=NC)NCc4ccccc4)cc3)cc2)cc1
inactive: dose: 1.9 mg/kg/injection, schedule: Q01DX Z (ip), vehicle: methylcellulose (MC) 97 % of control | dose: 3.8 mg/kg/injection, schedule: Q01DX Z (ip), vehicle: methylcellulose (MC) 108 % of control | dose: 7.5 mg/kg/injection, schedule: Q01DX Z (ip), vehicle: methylcellulose (MC) 93 % of control

N=C(N)SCc1c2ccccc2cc2ccccc12
inactive: dose: 88.0 mg/kg/injection, schedule: Q01DX009 (ip), vehicle: saline sonified 102 % of control | [1] 102 % of control | [2] 104 % of control | dose: 132.0 mg/kg/injection, schedule: Q01DX009 (ip), vehicle: saline sonified 105 % of control | dose: 200.0 mg/kg/injection, schedule: Q01DX009 (ip), vehicle: saline sonified 114 % of control | [3] 102 % of control | [4] 112 % of control

CC(C)=CC[Se]c1ncnc2c1ncn2C1OC(CO)C(O)C1O (centres undefined)
inactive: dose: 12.5 mg/kg/injection, schedule: Q01DX005 (ip), vehicle: saline 91 % of control | dose: 25.0 mg/kg/injection, schedule: Q01DX005 (ip), vehicle: saline 91 % of control | dose: 50.0 mg/kg/injection, schedule: Q01DX005 (ip), vehicle: saline 87 % of control

C/C(=N/O)c1ccc[nH]1
inactive: [5] 103 % of control | [6] 103 % of control | [7] 103 % of control

Cc1c2c(cc3c4ccccc4n(CC4CO4)c13)C(c1ccc(Cl)cc1)=NCC2 (centres undefined)
inactive: dose: 37.5 mg/kg/injection, schedule: Q04DX003 (ip), vehicle: water 104 % of control | dose: 75.0 mg/kg/injection, schedule: Q04DX003 (ip), vehicle: water 100 % of control | dose: 150.0 mg/kg/injection, schedule: Q04DX003 (ip), vehicle: water 92 % of control | dose: 300.0 mg/kg/injection, schedule: Q04DX003 (ip), vehicle: water 96 % of control

Cc1cscc(C)c1=S
inactive: dose: 6.25 mg/kg/injection, schedule: Q01DX009 (ip), vehicle: saline + alcohol 106 % of control | dose: 12.5 mg/kg/injection, schedule: Q01DX009 (ip), vehicle: saline + alcohol 105 % of control | dose: 25.0 mg/kg/injection, schedule: Q01DX009 (ip), vehicle: saline + alcohol 92 % of control

CC[Si](CC)(CC)O[Si](CC)(CC)CC
inactive: dose: 100.0 mg/kg/injection, schedule: Q04DX002 (ip), vehicle: saline 102 % of control | dose: 200.0 mg/kg/injection, schedule: Q04DX002 (ip), vehicle: saline 94 % of control | dose: 400.0 mg/kg/injection, schedule: Q04DX002 (ip), vehicle: saline 97 % of control

CCC(C)C(NC(=O)CNC(=O)OCc1ccccc1)C(N)=O (stereo not drawn) (Cbz-Gly-[ξI]-NH2)
inactive: [8] 103 % of control | [9] 97 % of control | [10] 95 % of control

Cc1cc(N)on1
inactive: [1] 97 % of control | [2] 96 % of control | [11] 106 % of control | [3] 101 % of control | [12] 88 % of control | [4] 123 % of control

O=C(Nc1cccc(C(F)(F)F)c1)Nc1ncccn1
inactive: [13] 90 % of control | [14] 94 % of control and 86 % of control | [15] 89 % of control

CC(=O)CC(=O)Nc1cc(Cl)c(NC(=O)CC(C)=O)cc1Cl
inactive: [9] 121 % of control | [10] 88 % of control

CSCCC(C#N)c1ccccc1 (centres undefined)
inactive: dose: 50.0 mg/kg/injection, schedule: Q01DX009 (ip), vehicle: saline with Tween-80 93 % of control | [16] 104 % of control | [8] 103 % of control | [2] 103 % of control | [17] 110 % of control | [9] 97 % of control | [3] 97 % of control

N#CC(C#N)=Cc1cccnc1
inactive: dose: 12.5 mg/kg/injection, schedule: Q04DX003 (ip), vehicle: Klucel (hydroxypropylcellulose) (HPC) 98 % of control | dose: 25.0 mg/kg/injection, schedule: Q04DX003 (ip), vehicle: Klucel (hydroxypropylcellulose) (HPC) 100 % of control | [18] 101 % of control | [19] 93 % of control and 104 % of control | [20] 98 % of control

CC1CCC2C(C)C3C(CC4C5CCC6CC(O)CCC6(C)C5CCC43C)N2C1 (centres undefined)
inactive: dose: 50.0 mg/kg/injection, schedule: Q01DX001 (ip), vehicle: other 91 % of control | [5] 88 % of control | [6] 96 % of control | [7] 91 % of control

Cc1ccccc1C(O)(c1ccccc1C)C1(O)CCN(C)CC1
inactive: dose: 9.37 mg/kg/injection, schedule: Q01DX009 (ip), vehicle: saline 94 % of control | dose: 18.75 mg/kg/injection, schedule: Q01DX009 (ip), vehicle: saline 96 % of control | dose: 37.5 mg/kg/injection, schedule: Q01DX009 (ip), vehicle: saline 100 % of control

NC(Cc1c[nH]c2ccc(F)cc12)C(=O)O (centres undefined)
inactive: [5] 95 % of control | dose: 100.0 mg/kg/injection, schedule: Q04DX003 (ip), vehicle: other 119 % of control | [6] 95 % of control | dose: 200.0 mg/kg/injection, schedule: Q04DX003 (ip), vehicle: other 102 % of control | [7] 89 % of control

O=C1c2cccc3cccc(c23)C(=O)N1Cc1ccco1
inactive: [14] 94 % of control | [21] 89 % of control | [15] 93 % of control

CC1(O)OC(n2c(Br)nc3c(N)ncnc32)C(O)C1O (centres undefined)
inactive: [20] 103 % of control | [22] 101 % of control | [23] 95 % of control

Cc1cc2nc(CN)[nH]c2cc1C
inactive: dose: 50.0 mg/kg/injection, schedule: Q01DX009 (ip), vehicle: saline 98 % of control | [1] 98 % of control | [11] 93 % of control

COC(=O)c1ccccc1C1(c2ccccc2C(=O)OC)OC(=O)c2ccccc21
inactive: [16] 97 % of control | [8] 98 % of control | [17] 101 % of control | [9] 93 % of control | [24] 97 % of control | [10] 96 % of control

C(C#CC1CCCCC1)#CC1CCCCC1
inactive: [1] 94 % of control | [11] 91 % of control | [12] 94 % of control

CNC(=O)OCc1c(COC(=O)NC)c(-c2ccc(OC)cc2)n2c1CCC2
inactive: [13] 109 % of control | [14] 117 % of control | [21] 98 % of control

CC(=O)Nc1cc2c(cc1[N+](=O)[O-])-c1ccc(F)cc1C2
inactive: [19] 104 % of control | [20] 94 % of control | dose: 100.0 mg/kg/injection, schedule: Q04DX003 (ip), vehicle: Klucel (hydroxypropylcellulose) (HPC) 96 % of control | [22] 96 % of control | dose: 200.0 mg/kg/injection, schedule: Q04DX003 (ip), vehicle: Klucel (hydroxypropylcellulose) (HPC) 100 % of control | [23] 91 % of control

NNS(=O)(=O)c1ccccc1
inactive: dose: 25.0 mg/kg/injection, schedule: Q04DX003 (ip), vehicle: saline 101 % of control | [18] 101 % of control | dose: 50.0 mg/kg/injection, schedule: Q04DX003 (ip), vehicle: saline 101 % of control | [20] 92 % of control | [2] 103 % of control

NNC(=O)NN
inactive: [16] 87 % of control | [17] 90 % of control | [24] 87 % of control

O=C(O)c1ccc([N+](=O)[O-])c(P(=O)(O)O)c1
inactive: dose: 75.0 mg/kg/injection, schedule: Q01DX001 (ip), vehicle: saline 96 % of control | dose: 150.0 mg/kg/injection, schedule: Q01DX001 (ip), vehicle: saline 109 % of control

CN(CC(=O)O)Cc1oc(CO)cc(=O)c1O
inactive: dose: 100.0 mg/kg/injection, schedule: Q01DX001 (ip), vehicle: saline 110 % of control | dose: 200.0 mg/kg/injection, schedule: Q01DX001 (ip), vehicle: saline 95 % of control | dose: 400.0 mg/kg/injection, schedule: Q01DX001 (ip), vehicle: saline 95 % of control
